ChEMBL document CHEMBL3991601, “The target landscape of clinical kinase drugs” (Science, 2017)
Activity calls are given as the source filed them. For most assays here, no stated cut-off is given here; in the data, actives have a measured Kd and inactives only a lower limit.

What was measured:
[1] = biological target: Mitogen-activated protein kinase 3 (Homo sapiens, UniProt P27361)
[2] = biological target: Bone morphogenetic protein receptor type-1B (Homo sapiens, UniProt O00238)
Ephrin type-B receptor 4 = biological target: T1, Ephrin type-B receptor 4 (Homo sapiens, UniProt P54760)
T1 sequence (P54760 whole entry): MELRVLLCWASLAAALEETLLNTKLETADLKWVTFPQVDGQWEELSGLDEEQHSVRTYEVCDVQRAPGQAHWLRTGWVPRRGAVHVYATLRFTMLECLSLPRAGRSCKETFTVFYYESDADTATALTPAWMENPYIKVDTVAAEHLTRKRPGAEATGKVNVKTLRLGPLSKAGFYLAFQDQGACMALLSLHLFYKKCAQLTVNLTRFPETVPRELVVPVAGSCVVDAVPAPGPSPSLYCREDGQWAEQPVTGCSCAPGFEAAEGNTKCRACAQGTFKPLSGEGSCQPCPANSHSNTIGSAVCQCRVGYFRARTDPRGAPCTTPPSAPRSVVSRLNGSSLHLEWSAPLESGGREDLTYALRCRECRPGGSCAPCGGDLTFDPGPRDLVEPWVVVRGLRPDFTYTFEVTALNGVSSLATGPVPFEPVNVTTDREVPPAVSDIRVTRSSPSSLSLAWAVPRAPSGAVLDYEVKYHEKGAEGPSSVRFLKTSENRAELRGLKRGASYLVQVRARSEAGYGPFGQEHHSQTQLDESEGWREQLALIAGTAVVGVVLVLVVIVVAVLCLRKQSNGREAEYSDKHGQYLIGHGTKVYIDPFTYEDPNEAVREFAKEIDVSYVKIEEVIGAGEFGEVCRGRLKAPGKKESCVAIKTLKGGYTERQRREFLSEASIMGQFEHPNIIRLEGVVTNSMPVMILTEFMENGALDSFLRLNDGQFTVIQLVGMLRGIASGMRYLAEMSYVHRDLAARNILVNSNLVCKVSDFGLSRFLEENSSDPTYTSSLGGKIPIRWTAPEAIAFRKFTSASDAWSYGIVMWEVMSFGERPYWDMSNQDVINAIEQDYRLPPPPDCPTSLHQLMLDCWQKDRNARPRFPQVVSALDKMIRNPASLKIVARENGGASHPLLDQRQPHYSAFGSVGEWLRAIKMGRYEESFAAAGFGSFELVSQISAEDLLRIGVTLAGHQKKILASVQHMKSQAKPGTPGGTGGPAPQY

[3] = biological target: Tyrosine-protein kinase Yes (Homo sapiens, UniProt P07947)
Chain of Tyrosine-protein kinase Yes (P07947 whole entry): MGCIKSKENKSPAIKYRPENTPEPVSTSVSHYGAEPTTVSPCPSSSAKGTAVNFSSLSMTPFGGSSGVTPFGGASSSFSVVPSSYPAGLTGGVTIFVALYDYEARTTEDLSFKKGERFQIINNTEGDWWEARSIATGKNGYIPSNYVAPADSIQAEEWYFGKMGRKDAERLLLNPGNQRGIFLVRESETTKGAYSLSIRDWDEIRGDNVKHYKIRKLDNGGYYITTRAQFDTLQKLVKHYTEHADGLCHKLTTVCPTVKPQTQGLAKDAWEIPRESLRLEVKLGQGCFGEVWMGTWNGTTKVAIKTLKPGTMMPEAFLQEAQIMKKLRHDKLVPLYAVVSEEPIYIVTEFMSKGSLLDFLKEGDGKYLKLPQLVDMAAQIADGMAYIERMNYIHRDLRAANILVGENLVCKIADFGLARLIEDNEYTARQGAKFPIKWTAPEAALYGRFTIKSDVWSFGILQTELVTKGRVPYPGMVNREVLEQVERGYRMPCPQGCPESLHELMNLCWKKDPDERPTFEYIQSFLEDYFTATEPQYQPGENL

Wee1-like protein kinase = Wee1-like protein kinase (Homo sapiens, UniProt P30291)
Chain of Wee1-like protein kinase (P30291 whole entry): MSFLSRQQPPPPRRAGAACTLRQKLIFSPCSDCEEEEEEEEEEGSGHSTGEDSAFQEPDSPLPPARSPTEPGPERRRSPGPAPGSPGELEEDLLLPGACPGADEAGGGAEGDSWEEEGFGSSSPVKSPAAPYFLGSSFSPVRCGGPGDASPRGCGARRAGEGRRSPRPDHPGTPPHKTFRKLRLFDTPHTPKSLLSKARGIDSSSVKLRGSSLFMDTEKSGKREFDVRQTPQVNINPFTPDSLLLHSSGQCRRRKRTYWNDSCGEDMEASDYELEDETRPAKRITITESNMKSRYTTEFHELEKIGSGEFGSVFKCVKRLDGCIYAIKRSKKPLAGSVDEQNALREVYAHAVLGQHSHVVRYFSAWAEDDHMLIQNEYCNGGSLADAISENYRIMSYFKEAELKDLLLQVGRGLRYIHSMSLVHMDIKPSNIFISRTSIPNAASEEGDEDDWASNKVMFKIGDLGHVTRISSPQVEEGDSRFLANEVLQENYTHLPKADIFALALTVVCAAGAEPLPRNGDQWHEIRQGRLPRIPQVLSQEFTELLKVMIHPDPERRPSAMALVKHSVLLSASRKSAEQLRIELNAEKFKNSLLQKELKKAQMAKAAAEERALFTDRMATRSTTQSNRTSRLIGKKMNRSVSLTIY

Rab-like protein 3 = biological target: T2, Rab-like protein 3 (Homo sapiens, UniProt Q5HYI8)
T2 sequence (Q5HYI8 whole entry): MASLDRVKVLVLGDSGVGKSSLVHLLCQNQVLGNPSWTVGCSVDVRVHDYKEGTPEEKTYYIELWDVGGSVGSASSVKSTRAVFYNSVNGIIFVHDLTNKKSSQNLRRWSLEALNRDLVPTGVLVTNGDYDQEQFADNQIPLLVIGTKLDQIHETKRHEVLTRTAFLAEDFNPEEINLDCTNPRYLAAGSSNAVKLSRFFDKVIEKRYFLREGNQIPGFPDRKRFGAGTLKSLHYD

[4] = biological target: Mitogen-activated protein kinase 9 (Homo sapiens, UniProt P45984)
Chain of Mitogen-activated protein kinase 9 (P45984 whole entry): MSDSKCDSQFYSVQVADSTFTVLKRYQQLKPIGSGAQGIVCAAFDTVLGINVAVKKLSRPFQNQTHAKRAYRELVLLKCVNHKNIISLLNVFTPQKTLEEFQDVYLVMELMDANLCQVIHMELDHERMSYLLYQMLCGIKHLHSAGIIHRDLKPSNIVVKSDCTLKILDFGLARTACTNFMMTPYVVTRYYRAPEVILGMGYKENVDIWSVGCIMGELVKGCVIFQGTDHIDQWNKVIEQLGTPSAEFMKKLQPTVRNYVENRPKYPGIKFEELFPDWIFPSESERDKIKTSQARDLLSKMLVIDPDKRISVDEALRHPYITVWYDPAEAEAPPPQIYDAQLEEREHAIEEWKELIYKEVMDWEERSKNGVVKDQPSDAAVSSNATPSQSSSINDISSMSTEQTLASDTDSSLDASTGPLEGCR

Ephrin type-A receptor 7 = Ephrin type-A receptor 7 (Homo sapiens, UniProt Q15375)
Chain of Ephrin type-A receptor 7 (Q15375 whole entry): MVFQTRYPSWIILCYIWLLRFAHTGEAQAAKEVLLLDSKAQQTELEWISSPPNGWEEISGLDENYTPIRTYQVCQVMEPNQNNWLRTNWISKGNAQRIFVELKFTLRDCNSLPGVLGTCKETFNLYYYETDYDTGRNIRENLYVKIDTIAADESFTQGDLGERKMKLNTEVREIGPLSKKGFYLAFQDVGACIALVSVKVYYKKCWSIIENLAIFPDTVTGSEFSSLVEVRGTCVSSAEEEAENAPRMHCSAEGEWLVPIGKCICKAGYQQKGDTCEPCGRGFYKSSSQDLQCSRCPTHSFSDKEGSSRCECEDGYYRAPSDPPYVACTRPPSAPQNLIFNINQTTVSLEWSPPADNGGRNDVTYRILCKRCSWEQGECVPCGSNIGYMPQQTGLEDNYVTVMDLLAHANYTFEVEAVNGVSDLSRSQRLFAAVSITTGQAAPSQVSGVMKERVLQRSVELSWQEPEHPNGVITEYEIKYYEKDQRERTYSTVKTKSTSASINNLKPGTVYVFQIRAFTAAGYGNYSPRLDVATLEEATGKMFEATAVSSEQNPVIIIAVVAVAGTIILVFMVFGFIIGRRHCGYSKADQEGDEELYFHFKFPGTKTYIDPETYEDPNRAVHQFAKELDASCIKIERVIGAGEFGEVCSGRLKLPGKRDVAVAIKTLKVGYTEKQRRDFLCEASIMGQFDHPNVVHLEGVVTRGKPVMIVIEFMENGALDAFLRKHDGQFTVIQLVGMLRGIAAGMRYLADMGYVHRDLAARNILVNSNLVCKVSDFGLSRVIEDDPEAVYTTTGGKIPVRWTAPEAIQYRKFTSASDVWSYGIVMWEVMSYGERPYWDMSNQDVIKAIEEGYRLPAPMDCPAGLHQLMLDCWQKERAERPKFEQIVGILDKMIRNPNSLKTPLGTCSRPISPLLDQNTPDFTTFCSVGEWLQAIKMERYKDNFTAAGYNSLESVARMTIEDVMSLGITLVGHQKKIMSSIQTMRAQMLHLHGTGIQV

TGF-beta receptor type-1 = biological target: T3, TGF-beta receptor type-1 (Homo sapiens, UniProt P36897)
T3 sequence (P36897 whole entry): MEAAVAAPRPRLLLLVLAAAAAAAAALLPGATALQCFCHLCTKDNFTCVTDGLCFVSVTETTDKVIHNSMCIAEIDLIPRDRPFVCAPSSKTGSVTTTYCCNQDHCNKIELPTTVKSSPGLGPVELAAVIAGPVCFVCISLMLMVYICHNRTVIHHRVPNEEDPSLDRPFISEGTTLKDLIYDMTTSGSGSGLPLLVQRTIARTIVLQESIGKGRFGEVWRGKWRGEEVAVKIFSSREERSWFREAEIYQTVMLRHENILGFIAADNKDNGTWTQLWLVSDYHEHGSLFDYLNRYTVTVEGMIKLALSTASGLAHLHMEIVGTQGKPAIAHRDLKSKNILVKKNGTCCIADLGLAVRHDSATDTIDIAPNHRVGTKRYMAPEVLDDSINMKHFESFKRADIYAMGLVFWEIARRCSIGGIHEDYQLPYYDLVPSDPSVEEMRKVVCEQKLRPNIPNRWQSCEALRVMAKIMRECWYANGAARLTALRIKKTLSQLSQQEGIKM

[5] = biological target: Citron Rho-interacting kinase (Homo sapiens, UniProt O14578)
[6] = biological target: T4, STE20-related kinase adapter protein alpha (Homo sapiens, UniProt Q7RTN6)
T4 sequence (Q7RTN6 whole entry): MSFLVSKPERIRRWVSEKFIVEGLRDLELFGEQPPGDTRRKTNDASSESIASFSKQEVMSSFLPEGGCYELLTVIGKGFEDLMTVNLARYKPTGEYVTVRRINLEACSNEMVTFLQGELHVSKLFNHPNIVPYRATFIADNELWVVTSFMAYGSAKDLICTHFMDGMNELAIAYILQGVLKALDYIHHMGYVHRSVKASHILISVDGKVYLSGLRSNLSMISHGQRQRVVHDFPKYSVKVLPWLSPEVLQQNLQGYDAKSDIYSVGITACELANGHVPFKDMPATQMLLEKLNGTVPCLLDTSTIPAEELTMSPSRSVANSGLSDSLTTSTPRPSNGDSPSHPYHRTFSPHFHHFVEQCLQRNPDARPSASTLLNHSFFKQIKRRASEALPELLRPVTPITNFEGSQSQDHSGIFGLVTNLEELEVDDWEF

[7] = biological target: Dual specificity mitogen-activated protein kinase kinase 2 (Homo sapiens, UniProt P36507)
Chain of Dual specificity mitogen-activated protein kinase kinase 2 (P36507 whole entry): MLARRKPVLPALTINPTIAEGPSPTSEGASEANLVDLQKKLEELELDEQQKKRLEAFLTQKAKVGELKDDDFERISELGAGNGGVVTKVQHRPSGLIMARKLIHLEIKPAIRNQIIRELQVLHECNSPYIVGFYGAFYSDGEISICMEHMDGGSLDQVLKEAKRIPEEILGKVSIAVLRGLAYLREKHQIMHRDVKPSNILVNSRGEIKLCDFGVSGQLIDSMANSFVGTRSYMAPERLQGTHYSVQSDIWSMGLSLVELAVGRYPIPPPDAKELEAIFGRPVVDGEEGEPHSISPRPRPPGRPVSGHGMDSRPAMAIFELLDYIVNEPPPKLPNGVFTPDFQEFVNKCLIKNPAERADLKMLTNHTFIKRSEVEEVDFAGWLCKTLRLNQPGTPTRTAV

Chain of Bone morphogenetic protein receptor type-1B (O00238 whole entry): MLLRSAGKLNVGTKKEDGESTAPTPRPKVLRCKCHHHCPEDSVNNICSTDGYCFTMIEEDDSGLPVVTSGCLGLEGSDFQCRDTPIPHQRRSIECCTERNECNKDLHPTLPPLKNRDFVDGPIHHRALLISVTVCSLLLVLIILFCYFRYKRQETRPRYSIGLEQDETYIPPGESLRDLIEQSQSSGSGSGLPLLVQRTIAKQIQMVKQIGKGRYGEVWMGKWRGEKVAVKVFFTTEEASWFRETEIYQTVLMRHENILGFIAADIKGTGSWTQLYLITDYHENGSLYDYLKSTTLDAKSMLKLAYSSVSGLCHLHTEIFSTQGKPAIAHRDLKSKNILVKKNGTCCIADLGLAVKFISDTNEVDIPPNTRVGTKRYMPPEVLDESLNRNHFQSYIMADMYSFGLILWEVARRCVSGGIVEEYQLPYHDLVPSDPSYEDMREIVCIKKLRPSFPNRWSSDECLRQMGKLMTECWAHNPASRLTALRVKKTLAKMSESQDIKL
Chain of Mitogen-activated protein kinase 3 (P27361 whole entry): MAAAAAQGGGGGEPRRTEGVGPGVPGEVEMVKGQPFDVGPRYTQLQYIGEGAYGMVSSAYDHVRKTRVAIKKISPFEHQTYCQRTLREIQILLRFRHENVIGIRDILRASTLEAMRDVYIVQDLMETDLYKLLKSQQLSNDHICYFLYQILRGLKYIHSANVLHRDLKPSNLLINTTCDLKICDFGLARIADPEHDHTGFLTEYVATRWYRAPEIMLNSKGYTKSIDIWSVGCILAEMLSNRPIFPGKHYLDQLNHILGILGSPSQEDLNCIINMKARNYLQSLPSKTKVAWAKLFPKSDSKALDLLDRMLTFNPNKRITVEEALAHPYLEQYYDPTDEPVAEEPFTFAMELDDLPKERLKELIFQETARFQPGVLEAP

Structure (SMILES)	Kd [1]	Kd [2]	Kd (Ephrin type-B receptor 4)	Kd [3]	Kd (Wee1-like protein kinase)	Kd (Rab-like protein 3)	Kd [4]	Kd (Ephrin type-A receptor 7)	Kd (TGF-beta receptor type-1)	Kd [5]	Kd [6]	Kd [7]
COc1cc2ncnc3c2cc1OCCCCCN(C)Cc1ccc(Br)cc1N3 [JNJ-26483327]	> 30 µM (inactive)	> 30 µM (inactive)	> 30 µM (inactive)	> 30 µM (inactive)	> 30 µM (inactive)	> 30 µM (inactive)	> 30 µM (inactive)	> 30 µM (inactive)	> 30 µM (inactive)	> 30 µM (inactive)	> 30 µM (inactive)	> 30 µM (inactive)
COc1cc2ncnc(Nc3ccc(F)c(Cl)c3)c2cc1NC(=O)/C=C/CN1CCCCC1 [DACOMITINIB ANHYDROUS]	> 30 µM (inactive)	> 30 µM (inactive)	> 30 µM (inactive)	> 30 µM (inactive)	> 30 µM (inactive)	> 30 µM (inactive)	> 30 µM (inactive)	> 30 µM (inactive)	> 30 µM (inactive)	> 30 µM (inactive)	> 30 µM (inactive)	> 30 µM (inactive)
C#Cc1cccc(Nc2ncnc3cc4c(cc23)OCCOCCOCCO4)c1 [ICOTINIB]	> 30 µM (inactive)	> 30 µM (inactive)	> 30 µM (inactive)	> 30 µM (inactive)	> 30 µM (inactive)	> 30 µM (inactive)	> 30 µM (inactive)	> 30 µM (inactive)	> 30 µM (inactive)	> 30 µM (inactive)	> 30 µM (inactive)	> 30 µM (inactive)
COc1cc2ncnc(Nc3ccc(O)cc3)c2cc1OC [WHI-P131]	> 30 µM (inactive)	> 30 µM (inactive)	> 30 µM (inactive)	> 30 µM (inactive)	> 30 µM (inactive)	> 30 µM (inactive)	> 30 µM (inactive)	> 30 µM (inactive)	> 30 µM (inactive)	> 30 µM (inactive)	> 30 µM (inactive)	> 30 µM (inactive)
O=C(O)c1ccc2c(c1)nc(Nc1cccc(Cl)c1)c1ccncc12 [SILMITASERTIB]	> 30 µM (inactive)	> 30 µM (inactive)	> 30 µM (inactive)	> 30 µM (inactive)	> 30 µM (inactive)	> 30 µM (inactive)	> 30 µM (inactive)	> 30 µM (inactive)	> 30 µM (inactive)	> 30 µM (inactive)	> 30 µM (inactive)	> 30 µM (inactive)
S=C(NCc1ccc2c(c1)OCO2)N1CCN(c2ncnc3c2oc2ccccc23)CC1 [AMUVATINIB]	> 30 µM (inactive)	> 30 µM (inactive)	> 30 µM (inactive)	> 30 µM (inactive)	> 30 µM (inactive)	> 30 µM (inactive)	> 30 µM (inactive)	> 30 µM (inactive)	> 30 µM (inactive)	> 30 µM (inactive)	> 30 µM (inactive)	> 30 µM (inactive)
CN1CCN(c2nc(C3=C(c4c[nH]c5ccccc45)C(=O)NC3=O)c3ccccc3n2)CC1 [SOTRASTAURIN]	> 30 µM (inactive)	> 30 µM (inactive)	> 30 µM (inactive)	> 30 µM (inactive)	> 30 µM (inactive)	> 30 µM (inactive)	> 30 µM (inactive)	> 30 µM (inactive)	> 30 µM (inactive)	> 30 µM (inactive)	> 30 µM (inactive)	> 30 µM (inactive)
CC1(COc2ccc3c(c2)ncn3-c2ccc3cccc(N4CCC(N)CC4)c3n2)COC1 [CRENOLANIB]	> 30 µM (inactive)	> 30 µM (inactive)	> 30 µM (inactive)	> 30 µM (inactive)	> 30 µM (inactive)	> 30 µM (inactive)	> 30 µM (inactive)	> 30 µM (inactive)	> 30 µM (inactive)	> 30 µM (inactive)	> 30 µM (inactive)	> 30 µM (inactive)
CNC(=O)c1cc(COc2nnc(Nc3ccc(Cl)cc3)c3ccoc23)ccn1 [TELATINIB]	> 30 µM (inactive)	> 30 µM (inactive)	> 30 µM (inactive)	> 30 µM (inactive)	> 30 µM (inactive)	> 30 µM (inactive)	> 30 µM (inactive)	> 30 µM (inactive)	> 30 µM (inactive)	> 30 µM (inactive)	> 30 µM (inactive)	> 30 µM (inactive)
COc1cc(F)c(F)c(Nc2ccc(I)cc2F)c1NS(=O)(=O)C1(C[C@H](O)CO)CC1 [REFAMETINIB]	> 30 µM (inactive)	> 30 µM (inactive)	> 30 µM (inactive)	> 30 µM (inactive)	> 30 µM (inactive)	> 30 µM (inactive)	> 30 µM (inactive)	> 30 µM (inactive)	> 30 µM (inactive)	> 30 µM (inactive)	> 30 µM (inactive)	0.176 µM (active)
COc1cccc2cc(-c3nc([C@H]4CC[C@H](C(=O)O)CC4)n4ncnc(N)c34)[nH]c12 [OSI-027]	> 30 µM (inactive)	> 30 µM (inactive)	> 30 µM (inactive)	> 30 µM (inactive)	> 30 µM (inactive)	> 30 µM (inactive)	> 30 µM (inactive)	> 30 µM (inactive)	0.78 µM (active)	> 30 µM (inactive)	> 30 µM (inactive)	> 30 µM (inactive)
Cc1ccc(C(=O)Nc2ccc(Oc3cc4cnn(C)c4cc3-c3cn[nH]c3)c(F)c2)c(=O)n1-c1ccc(F)cc1 [MERESTINIB]	> 30 µM (inactive)	> 30 µM (inactive)	> 30 µM (inactive)	> 30 µM (inactive)	> 30 µM (inactive)	> 30 µM (inactive)	> 30 µM (inactive)	> 30 µM (inactive)	> 30 µM (inactive)	> 30 µM (inactive)	> 30 µM (inactive)	> 30 µM (inactive)
CNC(=O)c1cccc(-c2ccc3c(N4CCOC[C@@H]4C)nc(N4CCOC[C@@H]4C)nc3n2)c1 [VISTUSERTIB]	> 30 µM (inactive)	> 30 µM (inactive)	> 30 µM (inactive)	> 30 µM (inactive)	> 30 µM (inactive)	> 30 µM (inactive)	> 30 µM (inactive)	> 30 µM (inactive)	> 30 µM (inactive)	> 30 µM (inactive)	> 30 µM (inactive)	> 30 µM (inactive)
